The structures appear in SMILES notation.

The subject of data set [1] is Erk1/2, Akt and Stat6 phosphorylation. Nature of the data set: Downstream signaling immunoblot in Mer expressing cell lines. The data set is classed as cell-based. Conditions: two hour treatment. The method, then: Whole cell lysates were prepared and proteins were resolved on Tris-Glycine SDS-PAGE gels (Invitrogen) and transferred onto nitrocellulose membranes. Membranes were blocked in tris-buffered saline with 0.1% Tween-20 containing 5% bovine serum albumin (when probing for Flt3) or 5% milk (when probing for all other molecules). For immunoprecipitation assays, cells were plated and treated as above, then treated with pervanadate for 10 minutes prior to cell lysis to stabilize the phosphorylation status. With the use of pervandate, it was not necessary to stimulate cells with exogenous Mer or Flt3 ligands (other than from fetal bovine serum) to detect phosphorylated Mer and Flt3 proteins. Anti-Mer antibody or anti-Flt3 and rec-Protein G-sepharose beads (Invitrogen) were added and lysates were incubated overnight on a rocking platform. Beads were washed and eluted proteins were resolved as above. Immunoprecipitate membranes were probed with an anti-phospho-Mer or anti-phospho-Flt3 antibody. After visualization, membranes were stripped and reprobed for total protein. The following antibodies were used according to manufacturer recommendations: anti-Mer (ab52968, AbCam); anti-phospho-Mer (Phosphosolutions Inc.); anti-Flt3 (sc-480), anti-Actin (sc-1616), anti-pan-Trk (sc-11), donkey-anti-goat IgG-HRP (sc-2020) (Santa Cruz Biotechnology); anti-phospho-Flt3 (#3461), anti-phospho-Stat6 (Tyr641, #9364), anti-Stat6, (#9362), anti-phospho-Stat5 (Tyr694, #9359), anti-Stat5 (#9358), anti-phospho-AKT (Ser473, #9271L), anti-AKT (#9272), anti-phospho-p44/42-MAPK (ERK1/2, Thr202/Tyr204, #9106), anti-p44/42-MAPK (#9102), anti-PARP (#9542), anti-Caspase-3 (#9665), anti-Tyro-3 (#5585) (Cell Signaling Technology); anti-Axl (AF154, R&D Systems); goat-anti-mouse IgG-HRP, goat-anti-rabbit IgG-HRP (BioRad). Proteins were visualized by horseradish peroxidase chemiluminescence detection (Perkin-Elmer).

Data set [2] deals with Erk1/2, Akt and Stat5 phosphorylation. The data set is described as follows: Downstream signaling immunoblot in Flt3-ITD cell lines. It is filed as cell-based. Conditions: 50 nM, two hour treatment. The method, then: Whole cell lysates were prepared and proteins were resolved on Tris-Glycine SDS-PAGE gels (Invitrogen) and transferred onto nitrocellulose membranes. Membranes were blocked in tris-buffered saline with 0.1% Tween-20 containing 5% bovine serum albumin (when probing for Flt3) or 5% milk (when probing for all other molecules). For immunoprecipitation assays, cells were plated and treated as above, then treated with pervanadate for 10 minutes prior to cell lysis to stabilize the phosphorylation status. With the use of pervandate, it was not necessary to stimulate cells with exogenous Mer or Flt3 ligands (other than from fetal bovine serum) to detect phosphorylated Mer and Flt3 proteins. Anti-Mer antibody or anti-Flt3 and rec-Protein G-sepharose beads (Invitrogen) were added and lysates were incubated overnight on a rocking platform. Beads were washed and eluted proteins were resolved as above. Immunoprecipitate membranes were probed with an anti-phospho-Mer or anti-phospho-Flt3 antibody. After visualization, membranes were stripped and reprobed for total protein. […]

Another data set deals with Kasumi-1. The data set is described as follows: Soft agar colony formation assay, Kasumi-1. The data set is classed as cell-based. As to conditions: Kasumi-1, 100 nM, 21 days, normalized to vehicle. On the procedure:
Cell lines were plated at a density of 1000 cells/ml in 0.35% agar over 0.5% agar base layer. […] Colonies were grown for 14 (NOMO-1, MV4;11, MOLM-13) or 21 days (Kasumi-1) prior to staining with 1 mg/ml nitrotetrazolium blue (Sigma-Aldrich). Treatment-containing medium was renewed twice weekly. […] Human mononuclear cells were isolated from umbilical cord blood samples using Ficoll-Paque PLUS (GE Healthcare Life Sciences). […] Cell line and patient sample colonies were counted using a GelCount colony counter (Oxford Optronix) and cord blood colonies were manually counted in a blinded, non-biased manner.

Data set [3] is described as follows: Pharmacokinetics in a murine model. Conditions: mouse, in vivo, po.
In a further data set the test system is MV4;11 cell line. Nature of the data set: Replating (rebound growth) assay, MV4;11. As to conditions: MV4;11, 50 nM for 72 hours then washed, replated at 1.5 × 10^4 viable cells/ml.
The next data set has as its target TRKB (Homo sapiens, UniProt Q16620). The data set is described as follows: Protein kinase profiling panel (Carna Biosciences), TRKB. As to conditions: read-out: Percent Inhibition at 46 nM, TRKB.
The next data set has as its system Kasumi-1 cell line. The data set is described as follows: Apoptosis by flow cytometry (YO-PRO-1 iodide / propidium iodide), Kasumi-1. Conditions: Kasumi-1, 300 nM, 72 hour; vehicle 30 ± 7%.
The subject of data set [4] is AML cell lines expressing Mer or Flt3 internal tandem duplication (ITD). The data set is described as follows: Apoptosis by flow cytometry, AML cell lines expressing Mer or Flt3-ITD (all lines together). As to conditions: maximum over cell lines, compared to vehicle.
Description: (§1) To assess apoptosis, AML cell lines were cultured at 3 × 10^5 cells, and 1 × 10^6 AML patient blasts were co-cultured with 3.5 × 10^5 HS27 cells per condition in 24 well plates, and treated for 72 hours. […] Flow cytometry data were analyzed using Modfit Cell Cycle Analysis software (Verity Software House). In replating assays, cells were similarly plated and treated, then harvested cells were washed twice, and 1.5 × 10^4 viable cells/ml were cultured in cRPMI for six days. Six days after replating, viable myeloblast count was determined by trypan blue exclusion using a Cedex XS Analyzer (Roche).

Sequence of TRKB (Q16620 32-822): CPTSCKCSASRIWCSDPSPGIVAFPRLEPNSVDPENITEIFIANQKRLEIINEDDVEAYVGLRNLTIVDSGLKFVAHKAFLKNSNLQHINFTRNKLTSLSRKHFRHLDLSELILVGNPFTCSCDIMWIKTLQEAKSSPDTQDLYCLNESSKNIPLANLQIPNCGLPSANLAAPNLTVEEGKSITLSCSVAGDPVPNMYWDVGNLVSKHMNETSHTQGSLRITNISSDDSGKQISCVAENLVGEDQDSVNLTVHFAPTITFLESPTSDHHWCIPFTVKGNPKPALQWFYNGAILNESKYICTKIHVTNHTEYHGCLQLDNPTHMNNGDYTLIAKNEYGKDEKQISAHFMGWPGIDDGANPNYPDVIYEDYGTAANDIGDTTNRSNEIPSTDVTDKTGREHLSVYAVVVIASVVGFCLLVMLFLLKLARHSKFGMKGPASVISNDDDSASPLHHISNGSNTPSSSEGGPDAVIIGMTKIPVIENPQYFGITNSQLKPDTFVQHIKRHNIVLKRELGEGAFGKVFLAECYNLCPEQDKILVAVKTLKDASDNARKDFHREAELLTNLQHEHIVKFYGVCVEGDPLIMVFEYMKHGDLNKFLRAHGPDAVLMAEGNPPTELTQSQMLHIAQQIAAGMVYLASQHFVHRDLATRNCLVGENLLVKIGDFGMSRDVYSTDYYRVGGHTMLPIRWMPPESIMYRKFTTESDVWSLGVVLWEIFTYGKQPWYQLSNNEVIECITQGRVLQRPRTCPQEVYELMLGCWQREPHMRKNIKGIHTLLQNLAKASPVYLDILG
Description for Kasumi-1 cell line: as §1
Description for MV4;11 cell line: as §1

Take `CCCCNc1ncc2c(-c3ccc(S(=O)(=O)N4CCOCC4)cc3)cn([C@H]3CC[C@H](O)CC3)c2n1` [UNC1666]: the “Erk1/2, Akt and Stat6 phosphorylation” value in data set [1] (50 nM) is given as “diminished phosphorylation”; in data set [1] (100 nM), “moderate decrease”; in data set [1] (300 nM), “more complete inhibition”. Besides, in data set [2], the “Erk1/2, Akt and Stat5 phosphorylation” value is given as “near complete ablation of phosphorylation”. Further, the “Reduction in colony formation” value in the data set on Kasumi-1 turned out to be 90 ± 6%. Besides, the bioavailability in data set [3] was 8%. Further, the “Viable cell number at Day 6 after replating” value in the data set with MV4;11 cell line (vehicle 10 × 10^5) is 2.0 × 10^5 viable cells/ml. Moreover, the “Increase in viable cell number over six days after replating” value in the data set on MV4;11 cell line (vehicle 67-fold) is on record as 13 fold. Also, the inhibition at 0.046 µM at TRKB was 95%. Also, the “Cells apoptotic or dead” value in the data set on Kasumi-1 cell line stood at 76 ± 8%. In addition, the “Induction of apoptosis, % of cells” value in data set [4] is given as “up to 98%”.
